Read-outs that look alike come from different tables or passages of the source.
Legend:
RSV-A2-GFP virus = assay: microbe, parasite or virus in culture; format: cell-based, Human Respiratory Syncytial Virus; conditions: Calu-1 cells, RSV-A2-GFP MOI=1.2, 96 hrs, GFP-expressing cells counted
Description: To set up the assay, ARF vials were thawed in a 37° C. water bath and a control compound was resuspended in assay media DMEM (Dulbecco's Modified Eagle Medium) containing 2% FBS, 100 U/ml Penicillin-Streptomycin.
GFP sequence was derived from pJTI™ R4 Dest CMV N-EmGFP pA Vector (Invitrogen) and was cloned into the intergenic sequence between wild-type RSV-A2 P and M genes using standard recombineering techniques. Recombinant RSV-A2-GFP was propagated in Hep2 cells (human cells contain HeLa marker chromosomes and were derived via HeLa contamination, ATCC CCL-23) with a Multiplicity of Infection (MOI) of 0.1. Virus was harvested 3 days after infection by collecting all culture material and then freeze-thawing the mixture for 5 minutes. Working virus stocks were generated by thawing frozen viral cultures in 37° C. water bath, which were centrifuged at 218 g for 15 min at 4° C. 1/10 of 10×SPG (Biological Industries 06-3061-01-5A) were added and then mixed. The supernatant was aliquoted, frozen in liquid nitrogen, and then transferred to a −80° C. freezer for storage. Virus titer was determined by automated plaque assay in HEp-2 cells following methods described previously (Wen Z. et al.; 2019).
Calu-1 cells were purchased from ATCC (Cat #HTB-54) and were expanded in growth media (DMEM containing 10% FBS, 100 U/ml Penicillin-Streptomycin). To make ARF, cell culture media was removed and discarded and the cell layer was briefly rinsed with PBS to remove serum. 2.5 mL of TrypLE Express solution were added and cells incubated until dislodged, to which growth media was added and the cells were resuspended by gentle pipetting. Cells were counted for concentration and viability as determined by ViCell. Cells were centrifuged at RT, 300 g for 5 minutes to pellet cells. The supernatant was gently aspirated and the pellet was flicked to loosen cells. Cells were resuspended in an appropriate volume of freezing medium (DMEM containing 10% DMSO, 10% FBS, 100 U/ml Penicillin-Streptomycin) to achieve a concentration of 5×10^6 cells/mL. 1 mL aliquots of the cell suspension were transferred to freezing vials. The vials were put into an upright container in a −80° C. freezer overnight before transferring vials to liquid nitrogen for storage
Assay ready freeze-down (ARF, generation described separately) Calu-1 cells (ATCC HTB-54) were used. Compound plates were prepared by dispensing compounds dissolved in DMSO into the wells of a 384 well Corning® 3985 plate with an ECHO acoustic dispenser and compounds were tested in 10-point serial 3-fold dilution. […] To set up the assay, ARF vial(s) were thawed in a 37° C. water bath and were then resuspended into assay media (DMEM containing 2% FBS, 100 U/ml Penicillin-Streptomycin). Cells were counted using default parameters on ViCell and diluted to 20,000 cells/mL in assay media. RSV-A2-GFP virus was added to cells at 24,000 pfu/ml (MOI=1.2) and mixed by gentle inversion. 10 μL/well of 100% DMSO was dispensed as CellTiter-Glo (CTG) assay Max_E controls wells. The cells were dispensed at 50 μL/well using Bravo with 50 μL filtered tips into compound plates. Plates were covered with MicroClime lids, loaded with 7.5 mL of assay media to minimize evaporation, and were incubated at 37° C. and 5% CO2 for 96 hrs. Following incubation, distinct, GFP-expressing cells were counted using an Acumen imaging system with appropriate settings. A same-well CTG assay was performed by adding 10 μL/well reconstituted CellTiter-Glo reagent (Promega G7573) and plates were read on PerkinElmer Envision according to manufacturer's instructions. Raw data were loaded and analyzed in ActivityBase. Antiviral IC50 and cytotoxicity CC50 values were determined using a 4 parameter logistic fit based on the Levenberg-Marquardt algorithm. Model: 205-4 Parameter Logistic.

hMPV-GFP virus = assay: microbe, parasite or virus in culture; format: cell-based, Human Metapneumovirus; conditions: VERO cells, hMPV-GFP MOI=1.25, 48 hrs, GFP-expressing cells counted
Description: GFP expressing rgHMPV #3 p3 was generated in Dr. Buchholz's lab (Biacchesi S. et al., J Virol. 2007 June; 81(11): 6057-6067) and propagated in VERO cells (ATCC Cat #CCL-81) with a Multiplicity of Infection (MOI) of 0.1. Virus was harvested 4 days after infection by collecting cultured material and was freeze-thaw cycled in liquid nitrogen twice. Working virus stocks were generated from thawing frozen samples in 37° C. water bath, which were centrifuged at 218 g for 15 min at 4° C. 1/10 of 10×SPG (Biological Industries 06-3061-01-5A) were added and then mixed. The supernatant was aliquoted, frozen in liquid nitrogen, and then transferred to a −80° C. freezer for storage. Virus titer was determined by performing titration test in 96-well plates and calculate approximate virus titer using GFP event/well data.
Compound plates were prepared by dispensing compounds dissolved in DMSO into wells of a 384 well Corning 3985 polystyrene flat clear bottom optical imaging microplate (202.5 nL/well) using an ECHO acoustic dispenser. Each compound was tested in 10-point serial 3-fold dilution (typical final concentrations: 40,300 nM-2 nM). […] Continuous culture of VERO cells was maintained in complete culture media (OptiMEM supplemented with 2 mM GlutaMAX™ and 100 U/ml Penicillin-Streptomycin). To set up the assay, VERO cells were trypsinized with 0.25% Trypsin-EDTA until cells were dislodged, then cells were re-suspended with 1 mL FBS. Cells were spundown at 300 g for 5 minutes and cells were washed twice with culture media and counted using default parameters on ViCell. Cells were then diluted to 100,000 cells/mL (5,000 cells/50 μL) in complete culture media+TrypLE Select (80 μL/mL). hMPV-GFP virus was added to cells at 125,000 pfu/mL (MOI=1.25) and were mixed by gentle inversion. 10 μL/well of 100% DMSO was dispensed to CellTiter-Glo (CTG) assay Max_E controls wells. Cells were dispensed at 50 μL/well using Bravo and 50 μL filtered tips into compound plates. Plates were covered with MicroClime lids and loaded with 7.5 mL of assay media to minimize evaporation. Plates were lightly shaken for 10 minutes at room temperature and then incubated at 37° C. and 5% CO2 for 48 hrs. Following incubation, distinct GFP-expressing cells were counted using an Acumen imaging system with appropriate settings. A same-well CTG assay was performed by adding 10 μL/well reconstituted CellTiter-Glo reagent (Promega G7573) and plates were read on PerkinElmer Envision according to manufacturer's instructions. Raw data were loaded and analyzed in ActivityBase. Antiviral IC50 and cytotoxicity CC50 values were determined using a 4 parameter logistic fit based on the Levenberg-Marquardt algorithm. Model: 205-4 Parameter Logistic.

[1] = Table I Summary of Activities for RSV, read-out: RSV EC50
[2] = Table II Summary of Activities for hMPV, read-out: RSV EC50
[3] = read-out: RSV EC50, Table I Summary of Activities for RSV
[4] = read-out: RSV EC50, Table II Summary of Activities for hMPV
[5] = human respiratory syncytial virus, Calu-1, 96 h, read-out: RSV EC50, Table I Summary of Activities for RSV
[6] = Vero, 48 h, read-out: RSV EC50, Table II Summary of Activities for hMPV

Structure (SMILES)	EC50 (RSV-A2-GFP virus; [1])	EC50 (hMPV-GFP virus; [2])	EC50 (RSV-A2-GFP virus; [5])	EC50 (hMPV-GFP virus; [6])	other results
Cn1nc(-c2ncco2)c(F)c1C(=O)N1C[C@@H]2[C@H](C1)[C@H]2Oc1cc(C(C)(C)N)cc(-c2ccc(F)cc2)n1 [Example 26, ((1R,5S,6s)-6-((4-(2-aminopropan-2-yl)-6-(4-fluorophenyl)pyridin-2-yl)oxy)-3-azabicyclo[3.1.0]hexan-3-yl)(4-fluoro-1-methyl-3-(oxazol-2-yl)-1H-pyrazol-5-yl)methanone]	< 10 nM	> 100 nM	–	–	–
CC(N)c1cc(O[C@H]2[C@@H]3CN(C(=O)c4cc(-c5cscn5)nn4C)C[C@@H]32)nc(-c2ccc(F)cc2)c1 (single isomer, unassigned; enantiomer 2) [Example 61B]	–	–	–	–	EC50 (RSV-A2-GFP virus; [3]): < 10 nM; EC50 (hMPV-GFP virus; [4]): > 100 nM
CC(C)(N)c1cc(O[C@H]2[C@@H]3CN(C(=O)c4sc(-c5cscn5)nc4C4CC4)C[C@@H]32)nc(-c2ccc(F)cc2)c1 [Example 8, ((1R,5S,6s)-6-((4-(2-aminopropan-2-yl)-6-(4-fluorophenyl)pyridin-2-yl)oxy)-3-azabicyclo[3.1.0]hexan-3-yl)(4-cyclopropyl-[2,4′-bithiazol]-5-yl)methanone]	< 10 nM	10 to 100 nM	–	–	–
Cc1nc(-c2cc(C(=O)N3C[C@@H]4[C@H](C3)[C@H]4Oc3cc(C(C)(C)N)cc(-c4ccc(F)cc4)n3)n(C)n2)cs1 [Example 24, ((1R,5S,6s)-6-((4-(2-aminopropan-2-yl)-6-(4-fluorophenyl)pyridin-2-yl)oxy)-3-azabicyclo[3.1.0]hexan-3-yl)(1-methyl-3-(2-methylthiazol-4-yl)-1H-pyrazol-5-yl)methanone]	< 10 nM	> 100 nM	–	–	–
CC(O)c1nc(-c2cscn2)sc1C(=O)N1C[C@@H]2[C@H](C1)[C@H]2Oc1cc(C(C)(C)N)cc(-c2ccc(F)cc2)n1 (single isomer, unassigned; enantiomer 2) [Example 16B]	–	–	–	–	EC50 (RSV-A2-GFP virus; [3]): < 10 nM; EC50 (hMPV-GFP virus; [4]): > 100 nM
Cn1nc(-c2ncco2)cc1C(=O)N1C[C@@H]2[C@H](C1)[C@H]2Oc1cc(C(C)(C)N)cc(N2CCC(C)(C)CC2)n1 [Example 65, ((1R,5S,6s)-6-((4-(2-aminopropan-2-yl)-6-(4,4-dimethylpiperidin-1-yl)pyridin-2-yl)oxy)-3-azabicyclo[3.1.0]hexan-3-yl)(1-methyl-3-(oxazol-2-yl)-1H-pyrazol-5-yl)methanone]	–	–	< 10 nM	> 100 nM	–
Cn1nc(-n2nccn2)cc1C(=O)N1C[C@@H]2[C@H](C1)[C@H]2Oc1cc(C(C)(C)N)cc(-c2ccc(F)cc2)n1 [Example 68, ((1R,5S,6s)-6-((4-(2-aminopropan-2-yl)-6-(4-fluorophenyl)pyridin-2-yl)oxy)-3-azabicyclo[3.1.0]hexan-3-yl)(1-methyl-3-(2H-1,2,3-triazol-2-yl)-1H-pyrazol-5-yl)methanone]	< 10 nM	10 to 100 nM	–	–	–
Cn1nc(-c2cscn2)cc1C(=O)N1C[C@@H]2[C@H](C1)[C@H]2Oc1cc(C(C)(C)CN)cc(-c2ccc(F)cc2)n1 [Example 54, ((1R,5S,6s)-6-((4-(1-amino-2-methylpropan-2-yl)-6-(4-fluorophenyl)pyridin-2-yl)oxy)-3-azabicyclo[3.1.0]hexan-3-yl)(1-methyl-3-(thiazol-4-yl)-1H-pyrazol-5-yl)methanone]	–	–	< 10 nM	10 to 100 nM	–
CC(N)c1cc(O[C@H]2[C@@H]3CN(C(=O)c4cc(-c5ccon5)nn4C)C[C@@H]32)nc(-c2ccc(F)cc2)c1 (single isomer, unassigned; enantiomer 2) [Example 62B]	–	–	–	–	EC50 (RSV-A2-GFP virus; [3]): < 10 nM; EC50 (hMPV-GFP virus; [4]): > 100 nM
CCn1nc(-c2cscn2)cc1C(=O)N1C[C@@H]2[C@H](C1)[C@H]2Oc1cc(C(C)(C)N)cc(-c2ccc(F)cc2)n1 [Example 19, ((1R,5S,6s)-6-((4-(2-aminopropan-2-yl)-6-(4-fluorophenyl)pyridin-2-yl)oxy)-3-azabicyclo[3.1.0]hexan-3-yl)(1-ethyl-3-(thiazol-4-yl)-1H-pyrazol-5-yl)methanone]	–	–	< 10 nM	10 to 100 nM	–
Cn1nc(-c2cscn2)cc1C(=O)N1C[C@@H]2[C@H](C1)[C@H]2Oc1cc(C(C)(N)CO)cc(-c2ccc(F)cc2)n1 (single isomer, unassigned; enantiomer 1) [Example 57A]	–	–	< 10 nM	> 100 nM	–
Cc1nc(-c2cccs2)sc1C(=O)N1C[C@@H]2[C@H](C1)[C@H]2Oc1cc(C(C)(C)N)cc(-c2ccc(F)cc2)n1 [Example 12, ((1R,5S,6s)-6-((4-(2-aminopropan-2-yl)-6-(4-fluorophenyl)pyridin-2-yl)oxy)-3-azabicyclo[3.1.0]hexan-3-yl)(4-methyl-2-(thiophen-2-yl)thiazol-5-yl)methanone]	< 10 nM	> 100 nM	–	–	–
Cn1nc(-c2ccon2)cc1C(=O)N1C[C@@H]2[C@H](C1)[C@H]2Oc1cc(C(C)(C)N)cc(-c2ccc3c(c2)CC3(F)F)n1 [Example 36, ((1R,5S,6s)-6-((4-(2-aminopropan-2-yl)-6-(7,7-difluorobicyclo[4.2.0]octa-1(6),2,4-trien-3-yl)pyridin-2-yl)oxy)-3-azabicyclo[3.1.0]hexan-3-yl)(3-(isoxazol-3-yl)-1-methyl-1H-pyrazol-5-yl)methanone]	< 10 nM	> 100 nM	–	–	–

Source: patent US12565494B2, “Inhibitors of human respiratory syncytial virus and metapneumovirus” (priority 2022, dated 2026)
